Results: ChEMBL document CHEMBL1201862, “PubChem BioAssay data set” (2004)
The source made the active and inactive calls.

Assays:
[1] = HepG2 cell cytotoxicity, dose response, cytotoxicity control, plate reader, cherry-pick, antagonist series (AID 743416); assay type: functional, cell-based
[2] = MC4R antagonists, dose response, counter-screen for LGR2 antagonist project, cell-based, plate reader, cherry pick (AID 743444); assay type: functional;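 note: transfected HEK 293 cells stimulated with alpha-MSH peptide; potency of inhibitors of the alpha-MSH evoked signal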
[3] = LGR2 antagonists, dose response, cell-based, HEK293, CRE-luciferase reporter, cherry pick, set 2 (AID 743343); assay type: functional;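 note: transfected cells were stimulated with diluted bursicon conditioned medium after compound addition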
[4] = A549 cell cytotoxicity, dose response, cytotoxicity control, plate reader, cherry-pick, antagonist series (AID 743412); assay type: functional, cell-based
[5] = molecular target: T1, Microphthalmia-associated transcription factor (Homo sapiens, UniProt O75030); experiment: TRPM1 promoter luciferase signal decrease, dose response, MITF inhibitor project, cell-based, SK-MEL-5, cherry-picked, set 3 (AID 493073); assay type: functional
T1 sequence (O75030 whole entry): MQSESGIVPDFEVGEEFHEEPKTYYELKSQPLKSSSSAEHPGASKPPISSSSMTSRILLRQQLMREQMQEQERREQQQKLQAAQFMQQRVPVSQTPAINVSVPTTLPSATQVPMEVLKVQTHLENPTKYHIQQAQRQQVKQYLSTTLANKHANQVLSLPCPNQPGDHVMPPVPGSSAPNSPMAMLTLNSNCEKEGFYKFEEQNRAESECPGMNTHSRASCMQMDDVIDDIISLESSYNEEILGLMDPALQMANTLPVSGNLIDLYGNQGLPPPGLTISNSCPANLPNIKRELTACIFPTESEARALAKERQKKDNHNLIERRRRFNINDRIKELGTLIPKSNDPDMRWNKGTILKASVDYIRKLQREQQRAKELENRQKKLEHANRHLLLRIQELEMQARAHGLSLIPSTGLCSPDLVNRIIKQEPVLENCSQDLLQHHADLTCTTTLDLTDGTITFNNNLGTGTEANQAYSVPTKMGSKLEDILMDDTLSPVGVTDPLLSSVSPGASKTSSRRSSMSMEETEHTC

[6] = Fluorescence-based cell-based high throughput dose response assay for inhibitors of the interaction of nucleotide-binding oligomerization domain containing 2 (NOD2) and the receptor-interacting serine-threonine kinase 2 (RIPK2).; assay type: functional; conditions: Homo sapiens
[7] = HEK293 cell cytotoxicity, dose response, cytotoxicity control, plate reader, cherry-picked samples (AID 743446); assay type: functional, cell-based
Steroidogenic factor 1 = Steroidogenic factor 1 (Homo sapiens, UniProt Q13285); experiment: Counterscreen for inverse agonists of the liver receptor homolog-1 (LRH-1; NR5A2): Luminescence-based cell-based high throughput dose response assay to identify inverse agonists of the Steroidogenic Factor 1 Nuclear Receptor (SF1; NR5A1).; assay type: functional
[8] = molecular target: Nuclear receptor subfamily 5 group A member 2 (Homo sapiens, UniProt O00482); assay type: functional, cell-based;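 note: HEK293T cells transfected with LRH-1 and a StAR promoter luciferase reporter; potency for inhibitors that lower LRH-1 driven reporter light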
[9] = StAR promoter reporter inhibition counter-screen, dose response, counter-screen for LRH-1 inverse agonist project, cell-based, luminescence, luciferase reporter (AID 651969); assay type: functional
Albumin = Albumin (Bos taurus, UniProt P02769); experiment: Counterscreen for inhibitors of T-cell receptor (TCR)-CD3 interaction: Fluorescence-based biochemical high throughput dose response assay to identify inhibitors of T-cell receptor (TCR)-CD3 interaction using a TAMRA-labeled BSA probe.; assay type: functional
[10] = cytotoxicity toward NIH3T3 fibroblasts, dose response, counter-screen, cell-based, ATP luminescence, mouse fibroblasts (AID 2010); assay type: functional;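 note: cells exposed to compound for about 90 hours before reading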
[11] = inhibitors of intracellular T. cruzi replication, confirmation, NIH3T3 host cells, beta-gal luminescence (AID 2044); assay type: functional, cell-based;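 note: intracellular parasites grown in NIH/3T3 mouse fibroblasts as host cells; luminescent beta-galactosidase reporter signal from transgenic T. cruzi replicating inside host cells; inhibitors lower the luminescence signal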
[12] = molecular target: Heat shock protein HSP 90-alpha (Homo sapiens, UniProt P07900); assay type: functional, organism-based
[13] = molecular target: Photoreceptor-specific nuclear receptor (Homo sapiens, UniProt Q9Y5X4); assay type: functional, cell-based;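 note: CHO-S cells with Gal4-NCOR and VP16-NR2E3 two-hybrid luciferase reporter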
[14] = Luminescence Cell-Based Dose Retest to Confirm Inhibitors of Cancer Stem Cells. [Related pubchem assays (depositor defined):AID2717, AID2721]; assay type: functional; conditions: Homo sapiens
[15] = molecular target: T2, Carboxy-terminal domain RNA polymerase II polypeptide A small phosphatase 1 (Homo sapiens, UniProt Q9GZU7); experiment: inhibitors of CTDSP1, concentration-response testing, biochemical assay, absorbance-based, actives from ultra-high-throughput screening (AID 540297); assay type: functional
T2 sequence (Q9GZU7 whole entry): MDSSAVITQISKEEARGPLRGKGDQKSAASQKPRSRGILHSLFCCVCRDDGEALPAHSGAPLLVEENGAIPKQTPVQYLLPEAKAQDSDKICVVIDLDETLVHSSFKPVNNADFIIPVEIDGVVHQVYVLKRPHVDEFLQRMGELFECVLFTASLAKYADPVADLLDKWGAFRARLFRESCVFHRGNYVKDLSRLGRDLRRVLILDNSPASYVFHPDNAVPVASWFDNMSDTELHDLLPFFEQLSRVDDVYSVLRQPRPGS

[16] = molecular target: T3, Probable nicotinate-nucleotide adenylyltransferase (Staphylococcus aureus (strain N315), UniProt P65502); assay type: functional, Staphylococcus aureus subsp. aureus N315;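 for IC50 Mean: confirmatory dose-response retesting of NadD inhibitor hits first found in an ultra-high-throughput screen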
[17] = molecular target: T3, Probable nicotinate-nucleotide adenylyltransferase; assay type: functional, Staphylococcus aureus subsp. aureus N315; conditions: read-out: IC50_Mean
cells [18] = experiment: cells
[19] = HEp-2 cell cytotoxicity, dose response, cytotoxicity control for RSV inhibitor project, HTS (AID 2410); assay type: functional; conditions: human respiratory syncytial virus
cells [20] = assay type: functional, cell-based
Paired box protein Pax-8 = Paired box protein Pax-8 (Homo sapiens, UniProt Q06710); experiment: inhibitors of PAX8-driven TPO luciferase reporter, dose response, RMG-I cells, cherry-pick (AID 687027); assay type: functional, cell-based;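 note: luciferase reporter driven by Pax8 target thyroperoxidase promoter measured by SteadyGlo luminescence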
[21] = molecular target: T4, Nuclear receptor subfamily 0 group B member 1 (Homo sapiens, UniProt P51843); assay type: functional, cell-based;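 note: HEK293T cells transfected with SF-1 and DAX-1 plus StAR promoter luciferase reporter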
T4 sequence (P51843 whole entry): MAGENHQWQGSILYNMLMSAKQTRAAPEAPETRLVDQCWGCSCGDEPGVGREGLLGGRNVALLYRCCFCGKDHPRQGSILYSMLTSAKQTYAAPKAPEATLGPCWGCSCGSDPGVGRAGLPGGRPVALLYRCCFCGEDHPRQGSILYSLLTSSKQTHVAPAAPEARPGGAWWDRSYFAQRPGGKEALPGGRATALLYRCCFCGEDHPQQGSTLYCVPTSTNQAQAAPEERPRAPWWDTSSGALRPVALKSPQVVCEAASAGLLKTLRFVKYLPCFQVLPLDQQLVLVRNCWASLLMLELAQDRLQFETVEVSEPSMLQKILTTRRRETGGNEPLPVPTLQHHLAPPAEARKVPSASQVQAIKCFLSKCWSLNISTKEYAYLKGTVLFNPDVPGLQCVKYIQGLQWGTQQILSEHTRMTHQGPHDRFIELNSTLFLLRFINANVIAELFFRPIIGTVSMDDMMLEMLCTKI

[22] = miR-122 activators in hepatoma reporter cells, dose response, cell-based, Huh7 psiCHECK-miR122, Renilla luciferase, cherry-picked (AID 651956); assay type: functional;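 note: huh7 hepatoma cells stably carrying a psiCHECK-2 miR-122 sensor plasmid; renilla luciferase signal reporting endogenous miR-122 activity after 48 h compound exposure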
[23] = inhibitors of HIV Env-driven cell fusion, dose response, cherry-pick (AID 652057); assay type: functional, cell-based
[24] = ZM109 Env clade C HIV-1 fusion inhibitors, dose response, HeLa effector, CEM target cells, luciferase, cherry-pick (AID 652058); assay type: functional, cell-based
[25] = CEM21 lymphoblast cell cytotoxicity, dose response, cytotoxicity control for viral fusion inhibitor project, CellTiter-Glo luminescence, cherry-picked (AID 652042); assay type: functional, cell-based;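 note: potency for signal decrease meaning cytotoxicity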
[26] = inhibitors of clade B AD8 Env fusion, dose response, cell-based, cherry-pick (AID 652062); assay type: functional;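 note: luciferase signal from cell-cell fusion driven by HIV-1 clade B AD8 Env; potency is for inhibitors of fusion seen as a drop in luminescence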
[27] = off-target signal loss in HeLa-CEM21 co-culture – HeLa F-luc CTL cells, cherry-picked, counter-screen for HIV-1 Env fusion inhibitor project, dose response (AID 652040); assay type: functional, cell-based;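 note: potency for signal decrease marking cytotoxic or nonspecific inhibition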
Streptococcus = experiment: Group A Streptococcus viability loss, dose response, counter-screen for streptokinase expression inhibitor project, luminescence, BacTiterGlo (AID 1915); assay type: functional, organism-based;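 note: potency for reduction of bacterial viability or growth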
[28] = test system: Streptococcus sp. 'group A'; experiment: growth inhibition of control SK(-) GAS strain, dose response, counter-screen for streptokinase expression inhibitor project, luminescence, kanamycin, BacTiterGlo, confirmation (AID 1900); assay type: functional, organism-based
[29] = NIH-3T3 fibroblast cytotoxicity, dose response, cytotoxicity control, cell-based, fluorescence, Alamar Blue, secondary assay (AID 2327); assay type: functional;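 note: NIH-3T3 mouse fibroblasts cultured with fluconazole at 8 µg/mL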
Protein Tat = molecular target: T5, Protein Tat (Human immunodeficiency virus type 1 group M subtype B (isolate HXB2)(HIV-1), UniProt P04608); assay type: functional;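 note: tat binding to TAR RNA read out by fluorescence polarization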
T5 sequence (P04608 whole entry): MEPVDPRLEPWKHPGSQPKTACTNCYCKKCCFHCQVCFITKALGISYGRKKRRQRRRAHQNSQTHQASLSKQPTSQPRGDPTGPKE

[30] = C. albicans growth with fluconazole, confirmation, fluorescence, retest (AID 2467); assay type: functional, cell-based
Streptokinase A = molecular target: T6, Streptokinase A (Streptococcus pyogenes serotype M1, UniProt P10520); experiment: S. pyogenes streptokinase expression inhibitors, potency, dose response, plasminogen activation absorbance, OD405 (AID 1914); assay type: functional, Streptococcus pyogenes M1 GAS;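 note: secreted streptokinase activity via plasminogen activation per viability signal from cell pellet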
T6 sequence (P10520 whole entry): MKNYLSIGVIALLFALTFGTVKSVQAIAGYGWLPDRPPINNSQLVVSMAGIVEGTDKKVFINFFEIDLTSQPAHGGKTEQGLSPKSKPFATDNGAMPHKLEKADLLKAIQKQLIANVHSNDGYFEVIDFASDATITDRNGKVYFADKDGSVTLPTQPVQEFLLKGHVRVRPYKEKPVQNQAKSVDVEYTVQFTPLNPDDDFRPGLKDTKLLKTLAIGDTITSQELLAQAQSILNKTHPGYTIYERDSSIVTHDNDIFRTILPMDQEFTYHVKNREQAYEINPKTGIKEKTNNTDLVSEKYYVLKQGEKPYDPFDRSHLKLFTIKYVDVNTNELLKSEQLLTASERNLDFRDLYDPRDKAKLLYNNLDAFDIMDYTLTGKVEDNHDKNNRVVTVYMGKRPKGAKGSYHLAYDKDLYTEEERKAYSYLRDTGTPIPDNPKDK

Sequence of Steroidogenic factor 1 (Q13285 whole entry): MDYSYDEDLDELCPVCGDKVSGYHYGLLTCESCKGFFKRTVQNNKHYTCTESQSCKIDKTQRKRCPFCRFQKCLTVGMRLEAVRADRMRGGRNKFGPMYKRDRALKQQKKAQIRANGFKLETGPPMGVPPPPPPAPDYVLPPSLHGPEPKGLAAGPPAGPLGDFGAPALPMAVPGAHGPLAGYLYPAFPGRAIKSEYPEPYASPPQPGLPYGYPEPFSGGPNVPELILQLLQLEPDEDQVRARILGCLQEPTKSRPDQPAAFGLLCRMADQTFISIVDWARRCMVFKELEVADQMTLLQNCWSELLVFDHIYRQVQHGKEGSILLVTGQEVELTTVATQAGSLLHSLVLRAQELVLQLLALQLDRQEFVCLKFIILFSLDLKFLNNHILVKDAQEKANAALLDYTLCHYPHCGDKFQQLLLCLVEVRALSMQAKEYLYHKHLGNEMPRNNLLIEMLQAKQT
Sequence of Albumin (P02769 whole entry): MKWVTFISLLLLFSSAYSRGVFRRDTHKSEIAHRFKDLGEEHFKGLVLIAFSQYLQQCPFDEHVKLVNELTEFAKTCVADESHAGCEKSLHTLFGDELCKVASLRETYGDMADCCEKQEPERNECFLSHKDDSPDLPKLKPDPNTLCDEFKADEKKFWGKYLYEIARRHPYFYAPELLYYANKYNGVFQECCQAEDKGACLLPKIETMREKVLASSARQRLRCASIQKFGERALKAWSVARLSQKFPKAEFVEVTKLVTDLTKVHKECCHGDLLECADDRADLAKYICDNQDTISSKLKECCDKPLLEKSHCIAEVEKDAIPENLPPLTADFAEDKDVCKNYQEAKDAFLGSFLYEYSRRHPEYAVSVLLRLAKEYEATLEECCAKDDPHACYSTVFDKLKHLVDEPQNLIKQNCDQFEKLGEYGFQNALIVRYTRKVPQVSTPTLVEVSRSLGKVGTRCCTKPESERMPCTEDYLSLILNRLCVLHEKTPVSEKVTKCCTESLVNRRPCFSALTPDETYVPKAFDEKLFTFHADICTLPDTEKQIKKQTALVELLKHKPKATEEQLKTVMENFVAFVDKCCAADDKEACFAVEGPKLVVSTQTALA
T3 sequence (P65502 whole entry): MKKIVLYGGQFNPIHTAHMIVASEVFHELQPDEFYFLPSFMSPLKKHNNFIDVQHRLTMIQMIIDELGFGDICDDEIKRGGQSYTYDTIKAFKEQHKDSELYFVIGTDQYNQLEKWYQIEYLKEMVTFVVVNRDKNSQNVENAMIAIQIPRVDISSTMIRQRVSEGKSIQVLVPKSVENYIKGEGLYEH
Sequence of Nuclear receptor subfamily 5 group A member 2 (O00482 whole entry): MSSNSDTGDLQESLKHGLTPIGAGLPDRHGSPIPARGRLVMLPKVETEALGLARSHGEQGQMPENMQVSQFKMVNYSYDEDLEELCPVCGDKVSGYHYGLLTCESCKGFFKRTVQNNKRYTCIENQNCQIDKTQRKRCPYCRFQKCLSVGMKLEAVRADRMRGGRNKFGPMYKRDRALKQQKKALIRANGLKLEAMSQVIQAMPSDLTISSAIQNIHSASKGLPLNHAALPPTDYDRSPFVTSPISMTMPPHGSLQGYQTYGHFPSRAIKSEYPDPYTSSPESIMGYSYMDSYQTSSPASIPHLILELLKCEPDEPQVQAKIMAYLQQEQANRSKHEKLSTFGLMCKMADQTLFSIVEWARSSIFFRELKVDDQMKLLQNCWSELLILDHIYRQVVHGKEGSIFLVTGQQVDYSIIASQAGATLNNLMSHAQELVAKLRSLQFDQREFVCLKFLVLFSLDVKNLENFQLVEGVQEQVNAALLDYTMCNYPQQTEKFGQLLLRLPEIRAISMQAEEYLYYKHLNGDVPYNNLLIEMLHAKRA
Sequence of Paired box protein Pax-8 (Q06710 whole entry): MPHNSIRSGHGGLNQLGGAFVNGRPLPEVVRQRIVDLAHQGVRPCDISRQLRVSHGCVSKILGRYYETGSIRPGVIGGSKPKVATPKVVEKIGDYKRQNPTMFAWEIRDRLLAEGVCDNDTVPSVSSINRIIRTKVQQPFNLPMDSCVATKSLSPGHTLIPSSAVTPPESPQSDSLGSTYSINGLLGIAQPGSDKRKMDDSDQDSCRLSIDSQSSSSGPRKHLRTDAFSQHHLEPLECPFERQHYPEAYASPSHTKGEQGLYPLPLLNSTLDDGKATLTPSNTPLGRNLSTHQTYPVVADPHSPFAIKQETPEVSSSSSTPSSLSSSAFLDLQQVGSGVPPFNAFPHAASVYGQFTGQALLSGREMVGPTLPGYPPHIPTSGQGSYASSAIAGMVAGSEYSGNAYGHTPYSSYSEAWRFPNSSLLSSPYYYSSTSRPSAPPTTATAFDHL
Sequence of Photoreceptor-specific nuclear receptor (Q9Y5X4 whole entry, the tested form may be a part): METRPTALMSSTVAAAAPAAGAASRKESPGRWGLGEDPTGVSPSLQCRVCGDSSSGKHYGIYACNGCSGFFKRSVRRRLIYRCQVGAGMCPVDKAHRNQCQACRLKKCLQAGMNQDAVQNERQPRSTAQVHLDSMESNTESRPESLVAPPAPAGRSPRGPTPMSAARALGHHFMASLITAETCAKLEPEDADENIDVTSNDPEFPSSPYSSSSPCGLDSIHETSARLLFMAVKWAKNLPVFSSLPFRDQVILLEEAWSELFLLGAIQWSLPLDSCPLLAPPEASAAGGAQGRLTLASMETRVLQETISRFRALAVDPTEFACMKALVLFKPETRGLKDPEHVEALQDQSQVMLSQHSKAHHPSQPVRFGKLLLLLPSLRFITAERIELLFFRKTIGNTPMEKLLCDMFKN

Cc1cc(Br)ccc1NC(=O)CNC(=O)Cn1ncc(Cl)c(Cl)c1=O
AC50 [1]: > 52 µM (inactive)
AC50 [2]: 5.41 µM (active)
AC50 [3]: 4.51 µM (active)
AC50 [4]: 3.92 µM (active)
AC50 [5]: 7.47 µM (active)
IC50 [6]: 1.84 µM (active)
AC50 [7]: 4.54 µM (active)

CCCN(CC(=O)Nc1ccccc1C)CC(=O)Nc1ccc(Br)cc1F
IC50 (Steroidogenic factor 1): 1.33 µM (active)
IC50 [8]: 10.6 µM (inactive)
IC50 [9]: 35.1 µM (inactive)

CCOC(=O)C1=C(NC(=O)Nc2ccc(Cl)c(Cl)c2)Nc2ccccc2N=C1CC
IC50 (Albumin): > 94.1 µM (inactive)
EC50 [10]: > 60 µM (not active)
EC50 [11]: 2.13 µM (active)
AC50 [12]: 2.11 µM (active)

COc1cc(OC)cc(-c2oc3cccnc3c2C#CCCO)c1
IC50 (Steroidogenic factor 1): 0.443 µM (active)
IC50 [8]: 1.87 µM (active)
IC50 [9]: 27.3 µM (inactive)

N#Cc1c(-c2ccccc2)cc(-c2ccccc2)nc1SCCC(=O)O
IC50 [13]: 12.7 µM (inactive)
AC50 [14]: 1.6 µM (active)

Cc1noc(C)c1NC(=O)N(C)C[C@@H]1Oc2c(NC(=O)c3ccncc3)cccc2C(=O)N([C@H](C)CO)C[C@@H]1C
IC50 [15]: 7.66 µM (active)
IC50 [16]: 27.3 µM (active)
IC50 [17]: 38.7 µM (active)

COC(=O)c1ccc(NC(=O)COc2cccc(-n3cnnn3)c2)cc1
IC50 (Steroidogenic factor 1): 35.9 µM (inactive)
IC50 [8]: 35.9 µM (inactive)
IC50 [9]: 35.9 µM (inactive)

O=S(=O)(c1cccc(Cl)c1)N1CCCC(c2nc(O)c3nnn(Cc4ccc5c(c4)OCCO5)c3n2)C1 (stereo not given)
IC50 (cells [18]): 10.3 µM (active)
IC50 [16]: 9.91 µM (active)
IC50 [17]: 30.5 µM (active)
CC50 [19]: 11.3 µM (active)

COc1ccc(-c2cnc3c(NC=O)cc(-c4ccccc4OC)cn23)cc1OC
IC50 (cells [20]): > 67.6 µM (inactive)
AC50 (Paired box protein Pax-8): 1.55 µM (active)
IC50 [21]: > 67.6 µM (inactive)

COc1ccccc1C#Cc1ccc([C@H]2[C@@H](CO)N3CCCCN(CCC(F)(F)F)C[C@H]23)cc1
AC50 [22]: 17.6 µM (active)

CSc1ccc(CN2CCC2(C)C(=O)Nc2cccc(NS(C)(=O)=O)c2)cc1 (stereo not given)
AC50 [23]: 9.03 µM (active)
AC50 [24]: 10.3 µM (active)
AC50 [25]: 58.6 µM (active)
AC50 [26]: 21.7 µM (active)
AC50 [27]: 11.4 µM (active)

C[C@@H]1CN([C@H](C)CO)S(=O)(=O)c2ccc(C3=CCCC3)cc2O[C@@H]1CN(C)C(=O)Cc1ccncc1
AC50 [22]: 5.84 µM (active)

C[C@H](O)[C@@H]1C(=O)N2CCc3c([nH]c4cccc(-c5ccccc5)c34)[C@@H]2C[C@@H]1N(C)C(=O)OCc1ccccc1
AC50 [23]: 5.22 µM (active)
AC50 [24]: 3.65 µM (active)
AC50 [25]: 32.5 µM (active)
AC50 [27]: 3.94 µM (active)

O=C(CNC(=O)c1ccccc1Br)N/N=C\c1cc([N+](=O)[O-])cc(Br)c1O
EC50 (Streptococcus): 8.46 µM (active)
IC50 (Albumin): > 94.1 µM (inactive)
EC50 [28]: 8.28 µM (active)

COc1ccc(/C=N\NC(=O)c2cc(O)c(O)c(O)c2)cc1CN1CCN(c2ccc(F)cc2)CC1
IC50 (Albumin): > 94.2 µM (inactive)
EC50 [29]: > 150 µM (inactive)
IC50 (Protein Tat): > 100 µM (inconclusive)
EC50 [30]: 1.46 µM (active)

Cc1nn(-c2ccc(Cl)cc2)c(Cl)c1/C=N/NC(=O)c1ccc(NS(=O)(=O)c2cccs2)cc1
EC50 (Streptococcus): 5.2 µM (active)
EC50 (Streptokinase A): > 150 µM (not active)
IC50 [16]: 7.71 µM (active)
IC50 [17]: 27.4 µM (active)
EC50 [28]: 1.53 µM (active)
